Results reported in PubChem BioAssay (NCI).
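Cultured in 96-well plates, cells were exposed to test compound for 48 hours across five concentrations. GI50 marks 50% less growth. TGI is the concentration that stops growth completely.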

Legend:
Experiment in all cases: inhibition of tumour cell growth, NCI panel, 48 h
BT-549 breast = test system: BT-549 breast
HL-60(TB) leukemia = test system: HL-60(TB) leukemia
HT29 colon = test system: HT29 colon
K-562 leukemia = test system: K-562 leukemia
MCF7 breast = test system: MCF7 breast
MOLT-4 leukemia = test system: MOLT-4 leukemia
OVCAR-3 ovarian = test system: OVCAR-3 ovarian
SF-268 CNS = test system: SF-268 CNS
SR leukemia = test system: SR leukemia
SW-620 colon = test system: SW-620 colon
UO-31 renal = test system: UO-31 renal

Compound | TGI (BT-549 breast) [µM] | TGI (HL-60(TB) leukemia) [µM] | TGI (HT29 colon) [µM] | TGI (K-562 leukemia) [µM] | TGI (MCF7 breast) [µM] | TGI (MOLT-4 leukemia) [µM] | TGI (OVCAR-3 ovarian) [µM] | TGI (SF-268 CNS) [µM] | TGI (SR leukemia) [µM] | TGI (SW-620 colon) [µM] | TGI (UO-31 renal) [µM] | GI50 (BT-549 breast) [µM]
O=C(c1ccccc1)c1ccc2nc(-c3c(Cl)c(Cl)c(Cl)c(Cl)c3-c3nnc(-c4ccccc4)o3)[nH]c2c1 | > 100 | > 100 | > 100 | > 100 | > 100 | > 100 | > 100 | > 100 | 50.2 | > 100 | > 100 | 
Cn1cnc(N)c(N=O)c1=O | > 10 | > 10 | > 10 | > 10 | > 10 | > 10 | > 10 | > 10 | > 10 | > 10 |  | 
CCN1C/C(=C\c2ccc(Cl)cc2)c2nc(N)c(C#N)c(-c3ccc(Cl)cc3)c2C1 | > 100 | > 100 | > 100 | > 100 | > 100 | > 100 | > 100 | > 100 | > 100 | > 100 | > 100 | 
O=C(O)CSc1ccccc1C(=O)O | > 100 | > 100 | > 100 | > 100 | > 100 | > 100 | > 100 | > 100 | > 100 | > 100 | > 100 | 
Cc1c(C(=O)c2ccc(N)c3ccccc23)c2ccccc2n1CCN1CCOCC1 | 80.1 | 58.1 | 72.5 | > 90.6 | 70.9 | > 67.7 | 41.3 | > 88.5 | > 85.3 | > 100 | 86.6 | 
C1=NCCNCCNCCN=Cc2ccc(cc2)OCc2cccc(n2)COc2ccc1cc2 | > 100 | > 100 | > 100 | > 100 | > 100 | > 100 | > 100 | > 100 | > 100 | > 100 | > 100 | 
C[C@]12CC[C@H]3[C@@H](CCC4=CC(=O)C=C[C@@]43OC(=O)C(F)(F)F)[C@@H]1CCC2=O | > 100 | > 100 | > 100 | > 100 | > 100 | > 100 | > 100 | > 100 | > 100 | > 100 | > 100 | 
CCn1c(=O)c2nc(SC)sc2n(-c2ccc(C)cc2)c1=O | > 100 | > 100 | > 100 | > 100 | > 100 | > 100 | > 100 | > 100 | > 100 | > 100 | > 100 | 33
Cc1ccc(S(=O)(=O)N2C[C@@H]3CC[C@]4(CO[Si](C)(C)C(C)(C)C)N[C@@H](c5ccccc5)[C@H]2[C@H]34)cc1 | 87.8 | > 100 | 42.6 | > 100 | > 100 | > 100 | > 100 | > 100 | > 100 | > 100 | > 100 | 
C#C[C@]1(O)CC[C@H]2[C@@H]3CCC4=C/C(=N/NC(=O)c5cccc6c(=O)c7ccccc7[nH]c56)CCC4[C@H]3CC[C@@]21C (some centres undefined) | 63.3 | > 100 | > 100 | > 100 | > 100 | > 100 | > 100 | > 100 | > 100 | > 100 | 76.5 | 
C/C=C(\C)C(=O)OC1CC(OC(C)=O)C2(C(=O)OC)COC3C2C1(C)C1C2(C(=O)OC)OCC1(C3O)C1(O)C3CC(C4(O)C=COC4O3)C1(C)O2 (centres undefined) | > 100 | > 100 | > 100 | > 100 | > 100 | > 100 | > 100 | > 100 | > 100 | > 100 | > 100 | 
O=C1c2cc(Cc3ccccc3)c(=O)c(Cc3ccccc3)cc2C(=O)c2cc(Cc3ccccc3)c(=O)c(Cc3ccccc3)cc21 | > 100 | > 100 | > 100 | > 100 | > 100 | > 100 | > 100 | > 100 | > 100 | > 100 | > 100 | 
COC(=O)C1CC2(C)C=CC1N(C(=O)OCc1ccccc1)C2 (centres undefined) | > 100 | 70.7 | > 100 | > 100 | > 100 | > 100 | > 100 | > 100 | > 100 | > 100 | > 100 | 
CC(C)(C)C1CCC2c3c([nH]c4ccccc34)C3C(=O)N(c4ccc(C#N)cc4)C(=O)C3C2C1 (centres undefined) | 65.5 | 15 | 20.3 | 30.4 | > 100 | > 100 | 90.8 | 29.3 | > 100 | 39.7 | 33.2 | 
C=C(C(=O)O[C@H]1C/C(C)=C/CC/C(CO)=C/[C@H]2C(=O)OC(=C)[C@H]12)C(O)CO (some centres undefined) | 30.2 | 10.4 | 38.7 | 14.8 | 25.6 | 13.2 | 22.8 | 39.6 | 6.81 | 14.4 | 27.6 | 
CCCCc1ccc(Nc2ncc3ncn(COCCO)c3n2)cc1 | > 100 | 50 | 50 | 52.7 | > 100 | 53.1 | 90.9 | > 100 | 52.5 | > 100 | 59.1 | 
CC1C(NNC(N)=O)Oc2cc3c(cc2C1c1ccccc1O)OCO3 (centres undefined) | > 100 | 35.4 | > 100 | 64.1 | > 100 | > 100 | > 100 | > 100 | 43.1 | 32.8 | > 100 | 
N#CC(CCN1CCC(Nc2ccccc2)(c2nnnn2C2CCCCC2)CC1)(c1ccccc1)c1ccccc1 | > 100 | > 100 | > 100 | > 100 | > 100 | > 100 | > 100 | > 100 | > 100 | > 100 | > 100 | 
COC(=O)C1=C(OC(=O)/C(=C/c2ccccc2)c2ccc(OC)cc2)C(C(=O)OC)[C@@]2(O)[C@@H](C(=O)OC)[C@H](C)C[C@@H]1[C@@H]2C(=O)OC (some centres undefined) | > 100 | > 100 | > 100 | > 100 | > 100 | > 100 | > 100 | > 100 | > 100 | > 100 | > 100 | 
